Experimental data from patent publication US6369094B1, “Polymorphic salt” (Pfizer Inc., priority 1999, dated 2002).
Values after ≈ are worked out from the molar mass of the structure shown. Where a name gives a salt, the structure may show the parent alone.

Key:
[1] = Compression studies in an IR bench press; assay type: physicochemical; conditions: 5 tonnes for 1 minute, 13 mm punch and die set
[2] = Hygroscopicity study: moisture sorption by Dynamic Vapour Sorption (DVS); assay type: physicochemical; conditions: 0 to 75% RH, 30° C.
Protocol: The moisture sorptions of the three known polymorphs (α-form, β-form and present invention) of the hemisulphate of 3-(N-methyl-2(R)-pyrrolidinylmethyl)-5-(2-phenylsulphonylethyl)-1H-indole were determined using a Dynamic Vapour Sorption (DVS) Automated Sorption Analyser Model DVS-1 manufactured by Surface Measurements Systems Ltd, UK. Each polymorph was analysed by accurately weighing approximately 25 mg into the sample pan which was then exposed to humidities in the range 0 to 75% RH. The analysis temperature was 30° C. with a nitrogen flow rate of 200 cm^3 min^−1.

[3] = Stability study: polymorphic form re-examined by PXRD and DSC; assay type: physicochemical; conditions: stored for seven months under ambient conditions
[4] = assay type: physicochemical; conditions: pH 6
[5] = as described in European Patent 0776323; cited from earlier work
[6] = listed as hemisulphate polymorph of the present invention

| Structure (SMILES) | colour change and punch filming upon compression [1] | colour change and punch filming upon compression [1, 6] | hygroscopicity (moisture sorption) [2] | hygroscopicity (moisture sorption) [2, 6] | polymorphic stability (PXRD and DSC) [3] | polymorphic stability (PXRD and DSC) [3, 6] | solubility [4] [mg/mL] | colour change and punch filming during tabletting [5] | hygroscopicity [5] | polymorphic stability [5] |
| --- | --- | --- | --- | --- | --- | --- | --- | --- | --- | --- |
| CN1CCC[C@@H]1Cc1c[nH]c2ccc(CCS(=O)(=O)c3ccccc3)cc12 [polymorph of the invention, 3-(N-methyl-2(R)-pyrrolidinylmethyl)-5-(2-phenylsulphonylethyl)-1H-indole] | no significant colour change and no evidence of punch filming | no significant colour change or punch filming | markedly less hygroscopic than either the α- or β-form | negligible hygroscopicity | totally unchanged | no change in its polymorphic form | 478 (≈ 1250 mM) | – | – | – |
| CN1CCC[C@@H]1Cc1c[nH]c2ccc(CCS(=O)(=O)c3ccccc3)cc12 [hydrobromide, 3-(N-methyl-2(R)-pyrrolidinylmethyl)-5-(2-phenylsulphonylethyl)-1H-indole, reference compound] | – | – | – | – | – | – | 2.90 | – | – | – |
| CN1CCC[C@@H]1Cc1c[nH]c2ccc(CCS(=O)(=O)c3ccccc3)cc12 [α-polymorph, 3-(N-methyl-2(R)-pyrrolidinylmethyl)-5-(2-phenylsulphonylethyl)-1H-indole] | – | – | – | – | – | – | – | giving rise to colour change and punch filming | hygroscopic | polymorphically unstable |
